Reference: patent US12304917B1, “Pleuromutilin derivative containing a thiazolo[5,4-c]pyridine side chain, and a preparation method and application thereof” (SHAANXI UNIVERSITY OF SCIENCE AND TECHNOLOGY, priority 2024, dated 2025)
Converted amounts (≈) assume the structure as drawn. Like-named read-outs stand apart in the source and are kept apart here.

Experiments:
[1] = test system: E. coli ATCC 25922; experiment: MIC by broth microdilution; settings: Escherichia coli, ATCC25922, 24 h, read-out: Minimum inhibitory concentration E.c.^h
[2] = test system: Methicillin-resistant S. epidermidis ATCC 51625; experiment: MIC by broth microdilution; settings: Staphylococcus epidermidis, ATCC51625|MRSE, 24 h, read-out: Minimum inhibitory concentration MRSE^e
[3] = test system: HEK293 cells; experiment: Cell Counting Kit-8 cytotoxicity; settings: read-out: CC50 HEK293 Cells; CCK-8, 24 hours incubation
[4] = physchem; settings: thermodynamic from solid
[5] = test system: Methicillin-resistant S. aureus ATCC 33591; experiment: MIC by broth microdilution; settings: Staphylococcus aureus, ATCC33591|MRSA, 24 h, read-out: Minimum inhibitory concentration MRSA^b
[6] = test system: A. baumannii ATCC 19606; experiment: MIC by broth microdilution; settings: Acinetobacter baumannii, ATCC19606, 24 h, read-out: Minimum inhibitory concentration A.b.^f
[7] = test system: S. aureus ATCC 29213; experiment: MIC by broth microdilution; settings: Staphylococcus aureus, ATCC29213, 24 h, read-out: Minimum inhibitory concentration S.a.^d
[8] = test system: HepG2 cells, HEK293 cells and A549 cells; experiment: Cell Counting Kit-8 cytotoxicity, all tested cells as summarised in text; settings: at a concentration of 100 μM
[9] = test system: five clinical MRSA isolates, including MRSA-171, MRSA-575, MRSA-206, MRSA-222, and MRSA-596; experiment: MIC, five clinical MRSA isolates as summarised in text; assay type: cell-based, Staphylococcus aureus; settings: MRSA-171, MRSA-575, MRSA-206, MRSA-222, MRSA-596
Source text: (§1) The Specific Steps are as Follows:

[10] = test system: Gram-positive and Gram-negative bacteria; experiment: MIC, panel of TABLE 1 strains as summarised in text; settings: comparison of MIC with positive control drugs
[11] = test system: S. enterica ATCC14028; experiment: MIC by broth microdilution; settings: Salmonella enterica, ATCC14028, 24 h, read-out: Minimum inhibitory concentration S.e.^g
[12] = test system: E. coli CMCC 44103; experiment: MIC by broth microdilution; settings: Escherichia coli, CMCC44103, 24 h, read-out: Minimum inhibitory concentration E.c.^i
[13] = test system: methicillin-resistant Staphylococcus aureus-596; experiment: MIC against clinical isolate; assay type: cell-based
Source text: as §1

[14] = test system: vancomycin-resistant Enterococcus-80; experiment: MIC against clinical isolate; assay type: cell-based
Source text: as §1

[15] = test system: methicillin-resistant Staphylococcus aureus-206; experiment: MIC against clinical isolate; assay type: cell-based
Source text: as §1

[16] = test system: multidrug-resistant Pseudomonas aeruginosa-126; experiment: MIC against clinical isolate; assay type: cell-based
Source text: as §1

[17] = test system: carbapenem-resistant Acinetobacter baumannii-882; experiment: MIC against clinical isolate; assay type: cell-based
Source text: as §1

[18] = test system: methicillin-resistant Staphylococcus aureus-575; experiment: MIC against clinical isolate; assay type: cell-based
Source text: as §1

[19] = test system: methicillin-resistant Staphylococcus aureus-222; experiment: MIC against clinical isolate; assay type: cell-based; settings: MRSA / MRSE
Source text: as §1

[20] = test system: methicillin-resistant Staphylococcus aureus-171; experiment: MIC against clinical isolate; assay type: cell-based
Source text: as §1

[21] = test system: multidrug-resistant Klebsiella pneumoniae-893; experiment: MIC against clinical isolate; assay type: cell-based; settings: clinical isolate MDR-KP-893
Source text: as §1

[22] = test system: A549 cells; experiment: Cell Counting Kit-8 cytotoxicity; settings: read-out: CC50 A549 Cells; CCK-8, 24 hours incubation
[23] = Cell Counting Kit-8 cytotoxicity; settings: human, HepG2 cells
[24] = test system: Methicillin-resistant S. aureus ATCC 43300; experiment: MIC by broth microdilution; settings: Staphylococcus aureus, ATCC43300|MRSA, 24 h, read-out: Minimum inhibitory concentration MRSA^c
[25] = Solubility experiment (equilibrium solubility); settings: thermodynamic from solid
[26] = test system: HepG2 cells; settings: human, 24 h
[27] = test system: HEK293 cells; settings: human, 24 h
[28] = test system: A549 cells; settings: human, 24 h
[29] = Cell Counting Kit-8 cytotoxicity; settings: human
[30] = test system: HepG2 cells; experiment: Cell Counting Kit-8 cytotoxicity; settings: read-out: CC50 HepG2 Cells; CCK-8, 24 hours incubation

Structure (SMILES)	MIC [1]	MIC [2]	solubility [4]	MIC [5]	MIC [6]	MIC [7]	toxicity to the tested cells (in words) [8]	antibacterial activity compared to valnemulin and retapamulin (in words) [10]	MIC [11]	MIC [12]	Antibacterial activity (MIC) MDR-KP^i [21]	CC50 [22]	MIC [24]	also measured
C=C[C@]1(C)C[C@@H](OC(=O)CSc2nc3cc[n+](Cc4ccc(C)cc4)cc3s2)[C@]2(C)[C@H](C)CC[C@]3(CCC(=O)[C@H]32)[C@@H](C)[C@@H]1O [Compound I-9, 5-(4-methylbenzyl)-2-((2-(((3aR,4R,5R,7S,8S,9R,9aS,12R)-8-hydroxy-4,7,9,12-tetramethyl-3-oxo-7-vinyldecahydro-4,9a-propancyclopenta[8]cyclo-5-yl)oxy)-2-oxoethyl)thio)thiazolo[5,4-c]pyridin-5-ium]	0.25 µg/mL	0.25 µg/mL	812 µM	0.25 µg/mL	0.5 µg/mL	0.125 µg/mL	low toxicity	most advantageous antibacterial activity	0.25 µg/mL	0.125 µg/mL	2 µg/mL	> 100 µM	0.25 µg/mL	CC50 [3]: 82.1 µM; MIC, range over five clinical MRSA isolates [9]: 2 to 8 µg/mL; MIC ([13]; clinical isolate MRSA-596, read-out: Antibacterial activity (MIC) MRSA^f): 8 µg/mL; MIC ([14]; clinical isolate VRE-80, read-out: Antibacterial activity (MIC) VRE^g): 8 µg/mL; MIC ([15]; clinical isolate MRSA-206, read-out: Antibacterial activity (MIC) MRSA^d): 2 µg/mL; MIC ([16]; clinical isolate MDR-PA-126, read-out: Antibacterial activity (MIC) MDR-PA^h): 8 µg/mL; MIC ([17]; clinical isolate CR-AB-882, read-out: Antibacterial activity (MIC) CR-AB^j): 4 µg/mL; MIC ([18]; clinical isolate MRSA-575, read-out: Antibacterial activity (MIC) MRSA^c): 4 µg/mL; MIC ([19]; clinical isolate, footnote e: MRSA-222, read-out: Antibacterial activity (MIC) MRSE^e): 4 µg/mL; MIC ([20]; clinical isolate MRSA-171, read-out: Antibacterial activity (MIC) MRSA^b): 8 µg/mL; CC50 at 24 h [23]: 66.4 µM
C=C[C@]1(C)C[C@@H](OC(=O)CSc2nc3cc[n+](Cc4ccc([N+](=O)[O-])cc4)cc3s2)[C@]2(C)[C@H](C)CC[C@]3(CCC(=O)[C@H]32)[C@@H](C)[C@@H]1O [Compound I-6, 5-(4-nitrobenzyl)-2-((2-(((3aR,4R,5R,7S,8S,9R,9aS,12R)-8-hydroxy-4,7,9,12-tetramethyl-3-oxo-7-vinyldecahydro-4,9a-propancyclopenta[8]cyclo-5-yl)oxy)-2-oxoethyl)thio)thiazolo[5,4-c]pyridin-5-ium]	8 µg/mL	16 µg/mL		16 µg/mL	16 µg/mL	32 µg/mL			16 µg/mL	32 µg/mL			4 µg/mL	solubility [25]: 887 µM
C=C[C@]1(C)C[C@@H](OC(=O)CSC(C)(C)CNC(=O)[C@H](N)C(C)C)[C@]2(C)[C@H](C)CC[C@]3(CCC(=O)[C@H]32)[C@@H](C)[C@@H]1O [Valnemulin, valnemulin, reference compound]	16 µg/mL (≈ 28.3 µM)		386 µM (≈ 218 µg/mL)		2 µg/mL (≈ 3.54 µM)	4 µg/mL (≈ 7.08 µM)			64 µg/mL (≈ 113 µM)	64 µg/mL (≈ 113 µM)				CC50 [26]: 77.3 µM; CC50 [27]: 65.4 µM; CC50 [28]: 53.7 µM
C=C[C@]1(C)C[C@@H](OC(=O)CSc2nc3cc[n+](Cc4ccc(C#N)cc4)cc3s2)[C@]2(C)[C@H](C)CC[C@]3(CCC(=O)[C@H]32)[C@@H](C)[C@@H]1O [Compound I-8, 5-(4-cyanobenzyl)-2-((2-(((3aR,4R,5R,7S,8S,9R,9aS,12R)-8-hydroxy-4,7,9,12-tetramethyl-3-oxo-7-vinyldecahydro-4,9a-propancyclopenta[8]cyclo-5-yl)oxy)-2-oxoethyl)thio)thiazolo[5,4-c]pyridin-5-ium]	1 µg/mL	2 µg/mL		1 µg/mL	1 µg/mL	0.5 µg/mL	low toxicity	good antibacterial activity	2 µg/mL	2 µg/mL	16 µg/mL	> 100 µM	1 µg/mL	CC50 at 24 h [29]: 79.2 µM; MIC ([13]; MRSA, read-out: Antibacterial activity (MIC) MRSA^f): 8 µg/mL; MIC ([14]; VRE, read-out: Antibacterial activity (MIC) VRE^g): 16 µg/mL; MIC ([15]; MRSA, read-out: Antibacterial activity (MIC) MRSA^d): 64 µg/mL; MIC ([16]; read-out: Antibacterial activity (MIC) MDR-PA^h): 32 µg/mL; MIC ([17]; read-out: Antibacterial activity (MIC) CR-AB^j): 64 µg/mL; MIC ([18]; MRSA, read-out: Antibacterial activity (MIC) MRSA^c): 32 µg/mL; MIC ([19]; read-out: Antibacterial activity (MIC) MRSE^e): 16 µg/mL; MIC ([20]; MRSA, read-out: Antibacterial activity (MIC) MRSA^b): 16 µg/mL; CC50 [30]: 78.5 µM
